# Patent US9265744B2, “Fulvic acid and antibiotic combination for the inhibition or treatment of multi-drug resistant bacteria” (NATRACINE UK LIMITED, priority 2012, dated 2016)
# Tested on: Klebsiella pneumoniae (ATCC BAA2146 NDM-1+)
# Experiment: Neutropenic mouse thigh model of K. pneumoniae infection
# Type: in vivo, mouse (CD1)
# Conditions: IV 2X daily; for Group Ave. Log 10 cfu/g / Group Average (cfu/g), thigh tissue burden / Log reduction from vehicle: 24 h post infection; for No. Sterilised (5 or less colonies detected on neat plate): n = 12 thighs
# From the text: Mice used in this study were supplied by Charles River UK and were specific pathogen free. The strain of mouse used was CD1, which is a well characterized outbred strain. Mice were 16-18 g on receipt at Euprotec's facility and were allowed to acclimatize for 7 days (target weight at the start of the experiment 22-25 g).
# Klebsiella pneumoniae (ATCC BAA2146 NDM-1^+ (blandm) was used throughout the study.
# In this study, 6 mice were used in each treatment group. • b) Immunosuppression
# Mice were rendered temporarily neutropenic by immunosuppression with cyclophosphamide at 150 mg/kg four days before infection and 100 mg/kg one day before infection by intraperitoneal injection. The immunosuppression regime leads to neutropenia starting 24 hours post administration which continues throughout the study. • c) Infection
# Antibacterial treatment was initiated 2 hours post infection (Table 3) and was administered twice (exactly 12 hours apart). An aliquot of 4% CHD-FA stock solution as adjusted to pH 5 with 10 M sodium hydroxide solution then diluted either 1:2 or 1:8 with 0.9% saline to give a dosing solution of 2% (200 mg/kg) and 0.5% (50 mg/kg) CHD-FA respectively.
# Colistin was diluted in 0.9% saline to give a dosing solution of 4 mg/ml (40 mg/kg). Meropenem was diluted in 0.9% saline to give a dosing solution of 3 mg/ml (30 mg/kg). The vehicle was 0.9% saline. Following reconstitution, the suspensions were vortexed to ensure complete dissolution.
# CHD-FA was administered by gavage, whereas Colistin, Meropenem and the vehicle were administered IV at 10 ml/kg (requiring individual mice to be administered ˜0.25 ml/dose). • e) Endpoints
# 24 hours post infection, the clinical condition of all animals was assessed prior to them being humanely euthanized. Animal weight was determined before both thighs were removed and weighed individually. Individual thigh tissue samples were homogenized in ice cold sterile phosphate buffered saline. Thigh homogenates were then quantitatively cultured on to CLED agar and incubated at 37° C. for 24 hrs and colonies counted daily. • f) Statistical Analysis
# Quantitative thigh tissue burden data for CHD-FA were analysed using the statistical test Kruskal Wallis test (corrected for multiple comparisons) and compared to Colistin, Meropenem and vehicle monotherapy, plus Colistin/CHD-FA and Meropenem/CHD-FA combinations.
Compound,Group Ave. Log 10 cfu/g (Meropenem 30 mg/kg),"Group Average (cfu/g), thigh tissue burden (Meropenem 30 mg/kg)",Log reduction from vehicle (Meropenem 30 mg/kg),No. Sterilised (5 or less colonies detected on neat plate) (Meropenem 30 mg/kg),Group Ave. Log 10 cfu/g (Colistin 40 mg/kg),"Group Average (cfu/g), thigh tissue burden (Colistin 40 mg/kg)",Log reduction from vehicle (Colistin 40 mg/kg),No. Sterilised (5 or less colonies detected on neat plate) (Colistin 40 mg/kg)
C[C@@H](O)[C@H]1C(=O)N2C(C(=O)O)=C(S[C@@H]3CN[C@H](C(=O)N(C)C)C3)[C@H](C)[C@H]12 [Meropenem],9.67 Log 10 cfu/g,4729505542 cfu/g,1.74 log 10,0,–,–,–,–
Colistin,–,–,–,–,9.14 Log 10 cfu/g,1388363808 cfu/g,2.27 log 10,0
